Results: ChEMBL document CHEMBL4665675 (J Med Chem, 2020)

How the values were obtained:
A549 [1] = assay: Antiproliferative activity against human A549 cells incubated for 72 hrs by sulforhodamine B assay; assay type: functional, cell-based; details: A549, 72 h
MCF7 [2] = assay: Antiproliferative activity against human MCF7 cells incubated for 72 hrs by sulforhodamine B assay; assay type: functional, cell-based; details: MCF7, 72 h
LoVo = assay: Antiproliferative activity against human LoVo cells incubated for 72 hrs by sulforhodamine B assay; assay type: functional, cell-based
[3] = Antiproliferative activity against human LoVo/DX cells incubated for 72 hrs by sulforhodamine B assay; assay type: functional, cell-based
BALB/3T3 = assay: Cytotoxicity against mouse BALB/3T3 cells incubated for 72 hrs by sulforhodamine B assay; assay type: cell-based; details: BALB/3T3, 72 h
HeLa = assay: Cytotoxicity against human HeLa cells after 24 to 72 hrs by Cell Titer Blue assay; assay type: cell-based
[4] = biological target: T1, carboxylesterase 1 (CES1) (Homo sapiens, UniProt P23141); assay: Substrate activity at human carboxylesterase 1 expressed in baculovirus infected Sf9 insect cells assessed as enzyme-catalysed compound cleavage incubated for 2 hrs by HPLC analysis; assay type: ADME; details: read-out: Activity
T1 sequence (P23141 whole entry): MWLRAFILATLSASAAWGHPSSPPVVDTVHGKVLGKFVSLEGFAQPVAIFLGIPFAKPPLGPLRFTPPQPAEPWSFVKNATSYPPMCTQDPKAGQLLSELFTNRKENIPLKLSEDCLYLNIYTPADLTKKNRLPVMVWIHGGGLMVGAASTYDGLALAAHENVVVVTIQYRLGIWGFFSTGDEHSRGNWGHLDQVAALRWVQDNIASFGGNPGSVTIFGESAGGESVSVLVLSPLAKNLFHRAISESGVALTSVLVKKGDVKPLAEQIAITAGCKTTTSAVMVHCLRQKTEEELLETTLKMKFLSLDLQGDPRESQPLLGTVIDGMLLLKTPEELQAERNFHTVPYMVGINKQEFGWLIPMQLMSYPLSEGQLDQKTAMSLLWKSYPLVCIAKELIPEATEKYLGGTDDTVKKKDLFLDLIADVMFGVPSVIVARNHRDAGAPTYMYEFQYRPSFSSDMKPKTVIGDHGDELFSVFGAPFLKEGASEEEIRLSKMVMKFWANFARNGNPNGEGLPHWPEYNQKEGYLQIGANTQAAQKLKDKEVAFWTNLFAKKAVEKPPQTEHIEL

CCRF-CEM = assay: Cytotoxicity against human CEM cells incubated for 48 to 72 hrs by Cell Titer 96 aqueous one solution cell proliferation assay; assay type: functional, cell-based
P388 = assay: Antiproliferative activity against mouse P388 cells incubated for 72 hrs by Coulter counter method; assay type: functional, cell-based; details: P388, 72 h
A549 [5] = assay: Cytotoxicity against human A549 cells; assay type: functional, cell-based
Bel-7402 = assay: Cytotoxicity against human BEL7402 cells; assay type: functional, cell-based
MCF7 [6] = assay: Cytotoxicity against human MCF7 cells; assay type: functional, cell-based
A2780 = assay: Cytotoxicity against human A2780 cells; assay type: functional, cell-based
[7] = Antiproliferative activity against human ALL5 cells incubated for 120 hrs by MTT assay; assay type: functional, cell-based; details: ALL5, 120 h

IC50 (A549 [1]) [µM]	IC50 (MCF7 [2]) [µM]	IC50 (LoVo) [µM]	Structure (SMILES)	IC50 [3] [µM]	IC50 (BALB/3T3) [µM]	further results
0.098	0.098	0.098	COc1c(Cl)c2c(c(OC)c1OC)-c1ccc(SC)c(=O)cc1[C@@H](N)CC2	0.098	0.098	–
–	–	–	COc1cc2c(c(OC)c1OC)-c1ccc(NCCCCCC(=O)N[C@@H](CC(C)C)C(=O)OC3CCCC3)c(=O)cc1[C@@H](NC(C)=O)CC2	–	–	IC50 (HeLa): 4.62 µM; metabolised at 2 h [4]: 36%
–	–	–	COc1cc2c(c(O)c1OC)-c1ccc(OC)c(=O)cc1[C@@H](NC(C)=O)CC2	–	–	IC50 (CCRF-CEM): 0.015 µM
–	–	–	CCNc1ccc2c(cc1=O)[C@@H](NC(C)=O)CCc1cc(OC)c(OC)c(OC)c1-2	–	–	IC50 (P388): 0.029 µM
0.093	0.093	0.093	COc1c(Cl)c2c(c(OC)c1OC)-c1ccc(SC)c(=O)cc1[C@@H](NC(=O)OCCOCCO)CC2	0.093	0.093	–
–	–	–	CCCNc1ccc2c(cc1=O)[C@@H](NC(C)=O)CCc1cc(OC)c(OC)c(OC)c1-2	–	–	IC50 (P388): 0.036 µM
0.008	0.008	0.008	CCCOC(=O)N[C@H]1CCc2c(Cl)c(OC)c(OC)c(OC)c2-c2ccc(SC)c(=O)cc21	0.008	0.008	–
–	–	–	COc1cc2c(c(OC)c1OC)-c1ccc(NCCOC(=O)CCC(=O)Oc3cccc(CO[N+](=O)[O-])c3)c(=O)cc1[C@@H](NC(C)=O)CC2	–	–	IC50 (A549 [5]): 0.017 µM; IC50 (Bel-7402): 0.017 µM; IC50 (MCF7 [6]): 0.017 µM; IC50 (A2780): 0.02 µM
–	–	–	CNc1ccc2c(cc1=O)[C@@H](NC(C)=O)CCc1cc(OC)c(OC)c(OC)c1-2	–	–	IC50 (P388): 0.029 µM
0.011	0.01	0.021	COc1c(F)c2c(c(OC)c1OC)-c1ccc(SC)c(=O)cc1[C@@H](NC(C)=O)CC2	0.398	0.114	–
–	–	–	CCOc1c(OC)c(OC)cc2c1-c1ccc(OC)c(=O)cc1[C@@H](NC(C)=O)CC2	–	–	IC50 (CCRF-CEM): 0.012 µM
0.01	0.01	0.01	COc1c(Cl)c2c(c(OC)c1OC)-c1ccc(SC)c(=O)cc1[C@@H](NC(=O)CCCCl)CC2	0.01	0.01	IC50 [7]: 0.01 µM
–	–	–	COc1cc2c(c(OC)c1OC)-c1ccc(NCCOC(=O)CCC(=O)Oc3ccc(CO[N+](=O)[O-])cc3)c(=O)cc1[C@@H](NC(C)=O)CC2	–	–	IC50 (A549 [5]): 0.017 µM; IC50 (Bel-7402): 0.017 µM; IC50 (MCF7 [6]): 0.017 µM; IC50 (A2780): 0.02 µM
–	–	–	COc1cc2c(c(OC(=O)C(C)C)c1OC)-c1ccc(OC)c(=O)cc1[C@@H](NC(C)=O)CC2	–	–	IC50 (CCRF-CEM): 0.012 µM
–	–	–	COc1cc2c(c(OC)c1OC)-c1ccc(NN(C)C)c(=O)cc1[C@@H](NC(C)=O)CC2	–	–	IC50 (P388): 0.025 µM
–	–	–	COc1cc2c(c(OCc3ccc(Cl)cc3)c1OC)-c1ccc(OC)c(=O)cc1[C@@H](NC(C)=O)CC2	–	–	IC50 (CCRF-CEM): 0.012 µM
–	–	–	COCCOc1c(OC)c(OC)cc2c1-c1ccc(OC)c(=O)cc1[C@@H](NC(C)=O)CC2	–	–	IC50 (CCRF-CEM): 0.012 µM
–	–	–	COc1cc2c(c(OC)c1OC)-c1ccc(NCCOC(=O)CCC(=O)OCCCO[N+](=O)[O-])c(=O)cc1[C@@H](NC(C)=O)CC2	–	–	IC50 (A549 [5]): 0.04 µM; IC50 (Bel-7402): 0.04 µM; IC50 (MCF7 [6]): 0.04 µM; IC50 (A2780): 0.02 µM
–	–	–	C=COc1c(OC)c(OC)cc2c1-c1ccc(OC)c(=O)cc1[C@@H](NC(C)=O)CC2	–	–	IC50 (CCRF-CEM): 0.012 µM
–	–	–	COc1cc2c(c(OC)c1OC)-c1ccc(=N)c(O)cc1[C@@H](NC(C)=O)CC2	–	–	IC50 (HeLa): 0.007 µM
0.002	0.002	0.002	CCC(=O)N[C@H]1CCc2c(Cl)c(OC)c(OC)c(OC)c2-c2ccc(SC)c(=O)cc21	0.002	0.002	IC50 [7]: 0.002 µM
–	–	–	COc1cc2c(c(OC)c1OC)-c1ccc(NCCOC(=O)CCC(=O)OCCCCO[N+](=O)[O-])c(=O)cc1[C@@H](NC(C)=O)CC2	–	–	IC50 (A549 [5]): 0.04 µM; IC50 (Bel-7402): 0.04 µM; IC50 (MCF7 [6]): 0.04 µM; IC50 (A2780): 0.02 µM
0.04	0.04	0.04	COc1c(Cl)c2c(c(OC)c1OC)-c1ccc(SC)c(=O)cc1[C@@H](NC(=O)OCCO)CC2	0.04	0.04	–

IC50 (A549 [1]) [µM]	IC50 (MCF7 [2]) [µM]	IC50 (LoVo) [µM]	Structure (SMILES)	IC50 [3] [µM]	IC50 (BALB/3T3) [µM]	further results
–	–	–	COc1cc2c(c(OC)c1OC)-c1ccc(NC(C)C)c(=O)cc1[C@@H](NC(C)=O)CC2	–	–	IC50 (P388): 0.048 µM
0.002	0.002	0.002	COc1c(Cl)c2c(c(OC)c1OC)-c1ccc(SC)c(=O)cc1[C@@H](NC(=O)C(C)C)CC2	0.002	0.002	IC50 [7]: 0.002 µM
–	–	–	CCC(=O)Oc1c(OC)c(OC)cc2c1-c1ccc(OC)c(=O)cc1[C@@H](NC(C)=O)CC2	–	–	IC50 (CCRF-CEM): 0.012 µM
0.02	0.02	0.02	CCCCOC(=O)N[C@H]1CCc2c(Cl)c(OC)c(OC)c(OC)c2-c2ccc(SC)c(=O)cc21	0.02	0.02	–
0.02	0.02	0.02	COc1c(Cl)c2c(c(OC)c1OC)-c1ccc(SC)c(=O)cc1[C@@H](NC(=O)OC(C)C)CC2	0.02	0.02	–
–	–	–	COc1cc2c(c(OC)c1OC)-c1ccc(NCCOC(=O)CCC(=O)OCCCCCCO[N+](=O)[O-])c(=O)cc1[C@@H](NC(C)=O)CC2	–	–	IC50 (A549 [5]): 0.04 µM; IC50 (Bel-7402): 0.04 µM; IC50 (MCF7 [6]): 0.04 µM; IC50 (A2780): 0.02 µM
–	–	–	CCCOc1c(OC)c(OC)cc2c1-c1ccc(OC)c(=O)cc1[C@@H](NC(C)=O)CC2	–	–	IC50 (CCRF-CEM): 0.012 µM
–	–	–	COc1cc2c(c(OC)c1OC)-c1ccc(NCCOC(=O)CCC(=O)OCCCCCO[N+](=O)[O-])c(=O)cc1[C@@H](NC(C)=O)CC2	–	–	IC50 (A549 [5]): 0.04 µM; IC50 (Bel-7402): 0.04 µM; IC50 (MCF7 [6]): 0.04 µM; IC50 (A2780): 0.02 µM
0.007	0.007	0.007	COc1c(Cl)c2c(c(OC)c1OC)-c1ccc(SC)c(=O)cc1[C@@H](NC(=O)OCC(F)(F)F)CC2	0.007	0.007	–
0.005	0.005	0.005	COCC(=O)N[C@H]1CCc2c(Cl)c(OC)c(OC)c(OC)c2-c2ccc(SC)c(=O)cc21	0.005	0.005	IC50 [7]: 0.005 µM
0.078	0.078	0.078	CCCCCCCCCC(=O)N[C@H]1CCc2c(Cl)c(OC)c(OC)c(OC)c2-c2ccc(SC)c(=O)cc21	0.078	0.078	IC50 [7]: 0.078 µM
–	–	–	COc1cc2c(c(OC)c1OC)-c1ccc(NCCCN(C)C)c(=O)cc1[C@@H](NC(C)=O)CC2	–	–	IC50 (P388): > 10 µM
0.092	–	–	COc1cccc2c1C(=O)c1c(O)c3c(c(O)c1C2=O)C[C@@](O)(C(=O)CO)C[C@@H]3O[C@H]1C[C@H](N)[C@H](O)[C@H](C)O1 [DOXORUBICIN]	0.092	0.092	–
0.007	0.007	0.007	COc1c(Cl)c2c(c(OC)c1OC)-c1ccc(SC)c(=O)cc1[C@@H](NC(=O)c1ccccc1)CC2	0.007	0.007	IC50 [7]: 0.007 µM
–	–	–	COc1cc2c(c(OCc3cccc(Cl)c3)c1OC)-c1ccc(OC)c(=O)cc1[C@@H](NC(C)=O)CC2	–	–	IC50 (CCRF-CEM): 0.012 µM
0.027	0.027	0.027	CCN(CC)C(=O)N[C@H]1CCc2c(Cl)c(OC)c(OC)c(OC)c2-c2ccc(SC)c(=O)cc21	0.027	0.027	IC50 [7]: 0.027 µM
–	–	–	COc1cc2c(c(OCc3ccccc3Cl)c1OC)-c1ccc(OC)c(=O)cc1[C@@H](NC(C)=O)CC2	–	–	IC50 (CCRF-CEM): 0.012 µM
0.008	0.008	0.008	CCOC(=O)N[C@H]1CCc2c(Cl)c(OC)c(OC)c(OC)c2-c2ccc(SC)c(=O)cc21	0.008	0.008	–
0.011	0.011	0.011	COC(=O)N[C@H]1CCc2c(Cl)c(OC)c(OC)c(OC)c2-c2ccc(SC)c(=O)cc21	0.011	0.011	–
–	–	–	COc1cc2c(c(OC)c1OC)-c1ccc(NCCOC(=O)CCC(=O)OCCO[N+](=O)[O-])c(=O)cc1[C@@H](NC(C)=O)CC2	–	–	IC50 (A549 [5]): 0.04 µM; IC50 (Bel-7402): 0.04 µM; IC50 (MCF7 [6]): 0.04 µM; IC50 (A2780): 0.02 µM
–	–	–	CCCCNc1ccc2c(cc1=O)[C@@H](NC(C)=O)CCc1cc(OC)c(OC)c(OC)c1-2	–	–	IC50 (P388): 0.24 µM
–	–	–	COc1cc2c(c(OC)c1OC)-c1ccc(NCC(C)C)c(=O)cc1[C@@H](NC(C)=O)CC2	–	–	IC50 (P388): 0.32 µM

Structure (SMILES)	IC50 (A549 [1]) [µM]	IC50 (MCF7 [2]) [µM]	IC50 (LoVo) [µM]	IC50 [3] [µM]	IC50 (BALB/3T3) [µM]	further results
COc1c(Br)c2c(c(OC)c1OC)-c1ccc(SC)c(=O)cc1[C@@H](NC(C)=O)CC2	–	–	0.014	0.135	–	–
COc1c(Cl)c2c(c(OC)c1OC)-c1ccc(SC)c(=O)cc1[C@@H](NC(C)=O)CC2	0.022	0.022	0.022	0.111	0.022	–
COc1c(I)c2c(c(OC)c1OC)-c1ccc(SC)c(=O)cc1[C@@H](NC(C)=O)CC2	0.011	0.017	0.007	0.642	0.115	–
